Results on three compounds are retold here after PMC8787434, “Discovery of Novel GR Ligands toward Druggable GR Antagonist Conformations Identified by MD Simulations and Markov State Model Analysis” (Advanced Science, 2021).

Assay [1] deals with T1, GR (LanthaScreen TR-FRET GR Competitive Binding Assay) (Homo sapiens, UniProt P04150).
T1 construct: gene NR3C1
T1 sequence (P04150 521-777 limits assumed): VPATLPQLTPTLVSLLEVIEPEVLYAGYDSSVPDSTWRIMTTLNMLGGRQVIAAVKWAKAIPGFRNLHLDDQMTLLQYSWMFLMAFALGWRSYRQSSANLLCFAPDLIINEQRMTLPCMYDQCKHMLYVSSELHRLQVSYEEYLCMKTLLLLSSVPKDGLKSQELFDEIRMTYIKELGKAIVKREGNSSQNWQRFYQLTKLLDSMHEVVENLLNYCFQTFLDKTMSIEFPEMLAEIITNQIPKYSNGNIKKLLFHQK
As to the kind of experiment: LanthaScreen TR-FRET competitive binding assay. From the text: LanthaScreen TR-FRET competitive binding assay on GR (LanthaScreen TR-FRET GR Competitive Binding Assay)

Assay [2] addresses T2, GR (pCMV-GR11 in Hela cells) (Homo sapiens, UniProt P04150).
T2 construct: gene NR3C1; GR expressed from pCMV-GR11 (Addgene #89105), transiently transfected in HeLa cells
T2 sequence (P04150 1-777): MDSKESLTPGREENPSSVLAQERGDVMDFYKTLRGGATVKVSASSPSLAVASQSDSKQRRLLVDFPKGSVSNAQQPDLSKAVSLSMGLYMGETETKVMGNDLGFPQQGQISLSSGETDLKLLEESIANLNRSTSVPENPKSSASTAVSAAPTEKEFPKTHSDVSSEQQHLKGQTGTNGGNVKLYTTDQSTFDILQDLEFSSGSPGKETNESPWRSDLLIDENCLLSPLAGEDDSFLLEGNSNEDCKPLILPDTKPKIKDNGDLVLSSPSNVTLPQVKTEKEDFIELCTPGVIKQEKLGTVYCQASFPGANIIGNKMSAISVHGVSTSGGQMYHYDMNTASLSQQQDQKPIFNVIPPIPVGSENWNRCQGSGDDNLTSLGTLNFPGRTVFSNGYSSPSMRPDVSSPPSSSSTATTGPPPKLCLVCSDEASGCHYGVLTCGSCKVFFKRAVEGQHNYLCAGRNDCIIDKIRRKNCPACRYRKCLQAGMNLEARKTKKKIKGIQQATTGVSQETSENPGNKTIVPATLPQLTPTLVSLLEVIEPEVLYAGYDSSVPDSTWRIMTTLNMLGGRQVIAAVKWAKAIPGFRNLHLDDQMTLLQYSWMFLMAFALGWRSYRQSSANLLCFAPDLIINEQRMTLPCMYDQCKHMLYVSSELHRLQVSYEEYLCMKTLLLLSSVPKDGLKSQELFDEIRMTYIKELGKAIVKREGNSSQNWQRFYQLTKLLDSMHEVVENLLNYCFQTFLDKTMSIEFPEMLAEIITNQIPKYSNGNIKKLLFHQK
Put plainly: NF-κB-Luc tethered transrepression reporter assay. Type of assay: cell-based. The following applies: read-out: Cell transrepression / NF-κb (IC50 μM). From the text:
NF-κB-Luc tethered transrepression reporter assay on GR (pCMV-GR11 in Hela cells)
On the technique in general: In a reporter assay the amount or activity of a reporter protein is the signal.

On to `CC(=O)N1CCc2cc(S(=O)(=O)C(C)CC(=O)NCC(C)c3ccccc3)ccc21` (stereo not drawn) [HP‐24], for which the values for the IC50 in assay [1] and in assay [2] were 2.53 ± 0.12 µM and 2.71 ± 0.72 µM, respectively.
Consider `COc1ccccc1CN1Cc2cc(NS(=O)(=O)c3ccc(F)cc3)ccc2OC(C)C1=O` (stereo not drawn) [HP‐26], for which the IC50 in assay [1] was found to be 4.45 ± 0.36 µM; in assay [2], 12.2 ± 1.95 µM.
Consider `Cc1ccc(S(=O)(=O)N2CCCc3cc(NS(=O)(=O)c4ccc(F)cc4C)ccc32)cc1` [HP‐67], for which the IC50 in assay [1] came out at 1.57 ± 0.54 µM; in assay [2], 2.76 ± 0.18 µM.
